Calls of active or inactive are those of the source. The rule behind the calls is not given here.
Columns and labels:
MIN6 [1] = test: Cytotoxicity against mouse MIN6 cells assessed as cell viability at 20 uM equiv. LSF measured after 48 hrs by MTT assay; format: cell-based; details: min6, 48 h
Erythrocyte = test: Induction of hemolysis in Wistar rat RBC at 20 uM equiv. LSF measured after 1 hr by spectrophotometric method; format: cell-based
[2] = Drug uptake in mouse MIN6 cells assessed as lisofylline-level in cell lysates at 20 uM equiv. LSF measured after 6 hrs by HPLC analysis; format: ADME, subcellular; details: min6, 6 h
MIN6 [3] = test: Cytoprotective activity against cytokine-mediated cytotoxicity in mouse MIN6 cells assessed as increase in cell viability at 20 uM equiv. LSF incubated for 48 hrs in presence of cocktail of cytokines TNF-alpha/IL-1-beta/IFN-gamma by MTT assay; format: functional, cell-based
[4] = Initial plasma concentration in Wistar rat at 30 mg/kg, iv by HPLC analysis; format: ADME, organism-based
[5] = Half life in Wistar rat at 30 mg/kg, iv measured after 24 hrs by HPLC analysis; format: ADME, organism-based; details: in vivo; for half-life: Wistar
[6] = AUC (0 to t) in Wistar rat at 30 mg/kg, iv measured after 24 hrs by HPLC analysis; format: ADME, organism-based; design: route intravenous, time 24 hrs, dose 30 mg/kg; details: in vivo
[7] = AUC (0 to infinity) in Wistar rat at 30 mg/kg, iv by HPLC analysis; format: ADME, organism-based; design: time infinity, route intravenous, dose 30 mg/kg; details: in vivo; for AUC(0-inf): Wistar
[8] = AUMC (0 to t) in Wistar rat at 30 mg/kg, iv measured after 24 hrs by HPLC analysis; format: ADME, organism-based; details: in vivo
[9] = AUMC (0 to infinity) in Wistar rat at 30 mg/kg, iv by HPLC analysis; format: ADME, organism-based; details: in vivo
[10] = MRT in Wistar rat at 30 mg/kg, iv measured after 24 hrs by HPLC analysis; format: ADME, organism-based; details: in vivo
[11] = Volume of distribution in Wistar rat at 30 mg/kg, iv measured after 24 hrs by HPLC analysis; format: ADME, organism-based; details: in vivo
[12] = Clearance in Wistar rat at 30 mg/kg, iv measured after 24 hrs by HPLC analysis; format: ADME, organism-based; details: in vivo
Rattus norvegicus [13] = test: Antidiabetic activity against STZ-induced diabetic Wistar rat model assessed as decrease in fasting blood glucose level at 30 mg/kg, ip administered once daily for 5 weeks and measured after 3 weeks by glucometric analysis; format: functional, organism-based
Rattus norvegicus [14] = test: Antidiabetic activity against STZ-induced diabetic Wistar rat model assessed as decrease in fasting blood glucose level at 30 mg/kg, ip administered once daily for 5 weeks and measured after 5 weeks by glucometric analysis; format: functional, organism-based
Rattus norvegicus [15] = test: Antidiabetic activity against STZ-induced diabetic Wistar rat model assessed as increase in plasma insulin level at 30 mg/kg, ip administered once daily for 5 weeks and measured after 3 to 5 weeks; format: functional, organism-based; details: time 3-5 weeks
Rattus norvegicus [16] = test: Protection against STZ-induced oxidative stress-mediated liver toxicity in Wistar rat assessed as reduction in plasma ALAT level at 30 mg/kg, ip administered once daily for 5 weeks measured after 3 to 5 weeks; format: functional, organism-based; details: time 3-5 weeks
Rattus norvegicus [17] = test: Protection against STZ-induced oxidative stress-mediated liver toxicity in Wistar rat assessed as reduction in plasma ASAT level at 30 mg/kg, ip administered once daily for 5 weeks measured after 3 to 5 weeks; format: functional, organism-based; details: time 3-5 weeks
Rattus norvegicus [18] = test: Protection against STZ-induced renal toxicity in Wistar rat assessed as reduction in plasma uric acid level at 30 mg/kg, ip administered once daily for 5 weeks measured after 3 to 5 weeks; format: functional, organism-based; details: time 3-5 weeks
Rattus norvegicus [19] = test: Protection against STZ-induced dyslipidemia in Wistar rat assessed as reduction in plasma triglyceride level at 30 mg/kg, ip administered once daily for 5 weeks measured after 3 to 5 weeks; format: functional, organism-based; details: time 3-5 weeks
Rattus norvegicus [20] = test: Protection against STZ-induced dyslipidemia in Wistar rat assessed as reduction in plasma cholesterol level at 30 mg/kg, ip administered once daily for 5 weeks measured after 3 to 5 weeks; format: functional, organism-based; details: time 3-5 weeks
Rattus norvegicus [21] = test: Protection against STZ-induced pancreatic beta cell destruction in Wistar rat assessed as proper arrangement of islets at 30 mg/kg, ip administered once daily for 5 weeks and measured on day 35 by Hematoxylin and eosin staining based analysis; format: functional, organism-based
Albumin [22] = biological target: T1, Albumin (Bos taurus, UniProt P02769); test: Binding affinity to bovine serum albumin assessed as decrease in fluorescence intensity measured after 30 mins by fluorescence quenching method; format: ADME; details: cattle, isolated protein, 0.5 h
T1 sequence (P02769 whole entry): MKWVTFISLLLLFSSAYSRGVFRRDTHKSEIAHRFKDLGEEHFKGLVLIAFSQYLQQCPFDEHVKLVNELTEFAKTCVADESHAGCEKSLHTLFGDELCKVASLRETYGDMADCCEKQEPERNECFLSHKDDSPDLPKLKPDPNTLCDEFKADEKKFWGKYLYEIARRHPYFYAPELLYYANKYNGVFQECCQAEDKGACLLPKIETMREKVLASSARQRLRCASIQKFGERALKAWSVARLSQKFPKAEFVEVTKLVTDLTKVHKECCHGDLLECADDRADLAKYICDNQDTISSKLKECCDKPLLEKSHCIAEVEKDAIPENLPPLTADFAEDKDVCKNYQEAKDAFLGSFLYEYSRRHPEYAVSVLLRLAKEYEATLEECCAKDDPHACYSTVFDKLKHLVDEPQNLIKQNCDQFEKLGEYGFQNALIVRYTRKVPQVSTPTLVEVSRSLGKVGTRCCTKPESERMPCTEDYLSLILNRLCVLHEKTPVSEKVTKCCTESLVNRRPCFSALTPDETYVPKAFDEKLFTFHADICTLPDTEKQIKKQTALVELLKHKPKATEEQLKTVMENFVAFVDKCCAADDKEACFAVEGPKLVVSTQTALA

Albumin [23] = biological target: T1, Albumin; test: Binding affinity to bovine serum albumin assessed as bathochromic peak shift measured after 30 mins by fluorescence quenching method; format: ADME; details: cattle, isolated protein, 0.5 h
[24] = Elimination rate constant in Wistar rat at 30 mg/kg,iv measured after 24 hrs by HPLC analysis; format: ADME, organism-based; details: in vivo
Rattus norvegicus [25] = test: Antidiabetic activity against STZ-induced diabetic Wistar rat model assessed as decrease in mortality at 30 mg/kg, ip administered once daily for 5 weeks; format: functional, organism-based
Rattus norvegicus [26] = test: Protection against STZ-induced inflammation in Wistar rat assessed as reduction in CD4+ T-cell infiltration into pancreatic islets at 30 mg/kg, ip administered once daily for 5 weeks and measured on day 35 by […] based analysis; format: functional, organism-based
Rattus norvegicus [27] = test: Protection against STZ-induced inflammation in Wistar rat assessed as reduction in CD8+ T-cell infiltration into pancreatic islets at 30 mg/kg, ip administered once daily for 5 weeks and measured on day 35 by […] based analysis; format: functional, organism-based
[28] = Aggregation property of the compound assessed as critical micelle concentration by fluorescence based analysis; format: physicochemical
[29] = Initial plasma concentration in Wistar rat at 15 mg/kg, iv by HPLC analysis; format: ADME, organism-based
[30] = Half life in Wistar rat at 15 mg/kg, iv measured after 24 hrs by HPLC analysis; format: ADME, organism-based; details: in vivo
[31] = AUC (0 to t) in Wistar rat at 15 mg/kg, iv measured after 24 hrs by HPLC analysis; format: ADME, organism-based; design: route intravenous, dose 15 mg/kg, time 24 hrs; details: in vivo
[32] = AUC (0 to infinity) in Wistar rat at 15 mg/kg, iv by HPLC analysis; format: ADME, organism-based; design: time infinity, route intravenous, dose 15 mg/kg; details: in vivo
[33] = AUMC (0 to t) in Wistar rat at 15 mg/kg, iv measured after 24 hrs by HPLC analysis; format: ADME, organism-based; details: in vivo
[34] = AUMC (0 to infinity) in Wistar rat at 15 mg/kg, iv by HPLC analysis; format: ADME, organism-based; details: in vivo
[35] = MRT in Wistar rat at 15 mg/kg, iv measured after 24 hrs by HPLC analysis; format: ADME, organism-based; details: in vivo
[36] = Volume of distribution in Wistar rat at 15 mg/kg, iv measured after 24 hrs by HPLC analysis; format: ADME, organism-based; details: in vivo
[37] = Clearance in Wistar rat at 15 mg/kg, iv measured after 24 hrs by HPLC analysis; format: ADME, organism-based; details: in vivo
[38] = Elimination rate constant in Wistar rat at 15 mg/kg,iv measured after 24 hrs by HPLC analysis; format: ADME, organism-based; details: in vivo
Rattus norvegicus [39] = test: Antidiabetic activity against STZ-induced diabetic Wistar rat model assessed as decrease in fasting blood glucose level at 15 mg/kg, ip administered once daily for 5 weeks and measured after 3 weeks by glucometric analysis; format: functional, organism-based
Rattus norvegicus [40] = test: Antidiabetic activity against STZ-induced diabetic Wistar rat model assessed as decrease in fasting blood glucose level at 15 mg/kg, ip administered once daily for 5 weeks and measured after 5 weeks by glucometric analysis; format: functional, organism-based
Rattus norvegicus [41] = test: Protection against STZ-induced pancreatic beta cell destruction in Wistar rat assessed as proper arrangement of islets at 15 mg/kg, ip administered once daily for 5 weeks and measured on day 35 by Hematoxylin and eosin staining based analysis; format: functional, organism-based
[42] = Prodrug release in rat plasma assessed as intact parent compound remaining measured after 72 hrs by HPLC analysis; format: ADME, cell-free

| Structure (SMILES) | Activity (MIN6 [1]) | Activity (Erythrocyte) | Activity (MIN6 [3]) | C0 [4] | AUC(0-t) at 24 h [6] | AUMCt [8] | AUMC [9] | Vd [11] | Activity (Rattus norvegicus [15]) | Activity (Rattus norvegicus [16]) | Activity (Rattus norvegicus [17]) | Activity (Rattus norvegicus [18]) | Activity (Rattus norvegicus [19]) | Activity (Rattus norvegicus [20]) | Activity (Rattus norvegicus [21]) | Kb (Albumin [22]) | k el at 24 h [24] | Activity (Rattus norvegicus [26]) | Activity (Rattus norvegicus [27]) | CMC [28] | other results |
| --- | --- | --- | --- | --- | --- | --- | --- | --- | --- | --- | --- | --- | --- | --- | --- | --- | --- | --- | --- | --- | --- |
| CCCCCCCCCCCCCCCC(=O)OC(C)CCCCn1c(=O)c2c(ncn2C)n(C)c1=O (configuration not stated) | Non-Toxic | Non-Toxic | Active | 267 ng/mL | 3490 ng·h/mL | 29900 ng·h²/mL | 24800 ng·h²/mL | 13.8 L/kg | Active | Active | Active | Active | Active | Active | Active | 5.55 10^4L/mol | 4.72e-05 s⁻¹ | Active | Active | 7.4 µg/mL | Drug uptake [2]: Active; half-life [5]: 3.59 h; AUC(0-inf) [7]: 3890 ng·h/mL; MRT ([10]; Wistar, read-out: MRT): 9.07 h; clearance [12]: 64.9 mL/min/kg; Activity (Rattus norvegicus [13]): Active; Activity (Rattus norvegicus [14]): Active; Activity (Albumin [23]): Active; Activity (Rattus norvegicus [25]): Active |
| C[C@@H](O)CCCCn1c(=O)c2c(ncn2C)n(C)c1=O [LISOFYLLINE] | Non-Toxic |  |  |  |  |  |  |  |  |  |  |  |  |  |  | 6.32 10^4L/mol |  |  |  |  | C0 [29]: 16400 ng/mL; half-life [30]: 0.752 h; AUC(0-t) at 24 h [31]: 14700 ng·h/mL; AUC(0-inf) [32]: 14700 ng·h/mL; AUMCt [33]: 12100 ng·h²/mL; AUMC [34]: 12800 ng·h²/mL; MRT [35]: 0.818 h; Vd [36]: 0.962 L/kg; clearance [37]: 17 mL/min/kg; k el at 24 h [38]: 0.000257 s⁻¹; Activity (Rattus norvegicus [39]): Active; Activity (Rattus norvegicus [40]): Active; Activity (Rattus norvegicus [41]): Active |
| CC(CCCCn1c(=O)c2c(ncn2C)n(C)c1=O)OC(=O)CCCCC1CCSS1 (configuration not stated) | Non-Toxic | Non-Toxic | Active | 4120 ng/mL | 13500 ng·h/mL | 67500 ng·h²/mL | 77300 ng·h²/mL | 1.77 L/kg | Active | Active | Active | Active | Active | Active | Active | 2.05 10^4L/mol | 0.000142 s⁻¹ | Active | Active | 6.31 µg/mL | t1/2 ([5]; 30 mg/kg, 24 h): 1.26 h; AUC [7]: 13838.8 ng·h/mL; MRT ([10]; 30 mg/kg, 24 h): 5.16 h; Activity (Rattus norvegicus [13]): inactive; Activity (Rattus norvegicus [14]): inactive |
| CCCCC/C=C/CC=CCCCCCCCC(=O)OC(C)CCCCn1c(=O)c2c(ncn2C)n(C)c1=O (configuration not stated) | Non-Toxic | Non-Toxic | Active | 4900 ng/mL | 16200 ng·h/mL | 77100 ng·h²/mL | 98700 ng·h²/mL | 2.59 L/kg | Active | Active | Active | Active | Active | Active | Active | 2.7 10^4L/mol | 6.39e-05 s⁻¹ | Active | Active | 0.81 µg/mL | Drug uptake [2]: Active; half-life [5]: 3.12 h; AUC [7]: 16984.11 ng·h/mL; MRT ([10]; Wistar, read-out: MRT): 6.55 h |
| CCCCCCCCC=CCCCCCCCC(=O)OC(C)CCCCn1c(=O)c2c(ncn2C)n(C)c1=O (configuration not stated) | Non-Toxic | Non-Toxic | Active | 4750 ng/mL | 6110 ng·h/mL | 30500 ng·h²/mL | 43200 ng·h²/mL | 15 L/kg | Active | Active | Active | Active | Active | Active | Active | 6.34 10^4L/mol | 4.44e-05 s⁻¹ | Active | Active | 7.58 µg/mL | Drug uptake [2]: 56 ng; half-life [5]: 4.44 h; AUC(0-inf) [7]: 6640 ng·h/mL; MRT ([10]; Wistar, read-out: MRT): 7.91 h; clearance [12]: 40.3 mL/min/kg; Activity (Rattus norvegicus [13]): Active; Activity (Rattus norvegicus [14]): Active; Stability [42]: 9.74%; Activity (Rattus norvegicus [25]): Active |

Reference: ChEMBL document CHEMBL5036346, “Role of Chain Length and Degree of Unsaturation of Fatty Acids in the Physicochemical and Pharmacological Behavior of Drug-Fatty Acid Conjugates in Diabetes” (J Med Chem, 2021)
